The IC50 is the concentration needed to halve the response being measured.

Structures can show the parent of a compound that is named as a salt.

ASGPR, sequence (P02706 whole entry): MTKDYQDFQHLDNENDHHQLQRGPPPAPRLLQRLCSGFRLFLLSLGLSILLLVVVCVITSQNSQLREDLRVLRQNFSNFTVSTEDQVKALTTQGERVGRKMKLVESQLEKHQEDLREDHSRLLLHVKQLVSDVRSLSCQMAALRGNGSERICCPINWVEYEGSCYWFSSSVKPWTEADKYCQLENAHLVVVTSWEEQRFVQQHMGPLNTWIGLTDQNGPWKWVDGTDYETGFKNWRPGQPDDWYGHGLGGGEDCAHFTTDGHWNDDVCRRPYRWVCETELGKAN
ASGPR, sequence (P08290 whole entry): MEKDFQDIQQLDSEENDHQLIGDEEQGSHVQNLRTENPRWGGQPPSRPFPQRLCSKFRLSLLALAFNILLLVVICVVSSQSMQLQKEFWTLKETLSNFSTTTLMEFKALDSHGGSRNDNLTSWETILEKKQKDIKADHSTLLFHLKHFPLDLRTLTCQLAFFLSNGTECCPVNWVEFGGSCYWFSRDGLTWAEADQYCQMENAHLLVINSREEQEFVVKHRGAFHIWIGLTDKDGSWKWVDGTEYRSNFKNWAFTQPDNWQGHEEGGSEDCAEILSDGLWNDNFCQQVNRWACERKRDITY

One assay deals with ASGPR (Rattus norvegicus (Rat), UniProt P02706+P08290). The assay is described as follows: Fluorescent polarization (FP) ASGPR binding assay. The following applies: Table K, monomeric compounds; competition with 1 nM Cy5-labeled trimeric GalNAc tracer; Wistar rat liver membrane. An excerpt: Fluorescent Polarization (FP) ASGPR Binding Assay to Determine the Binding Affinities of ASGPR-Targeted Small Molecules:
The technique of fluorescence polarization (FP) is based on the observation that when a fluorescently labeled molecule is excited by polarized light, it emits light with a degree of polarization that is inversely proportional to the rate of molecular rotation. This property of fluorescence can be used to measure the interaction of a small labeled ligand with a larger protein and provides a basis for direct and competition binding assays.
The assay was performed in 384-well microplates (GREINER bio-one, 781076). Membrane prepared from Wistar rat liver was used as a source of ASGPR and Cy5 fluorophore-labeled trimeric GauNAc-tool compound was used as a tracer.
In the FP binding experiments, 15 μltest sample was mixed with 15 μl of […] liver membrane. After 10 minutes incubation at room temperature, 10 μl of the Cy5-labeled trimeric GalNAc-tool compound (final concentration: 1 nM) were added. The FP signals were recorded after 30 minutes incubation at room temperature at Ex. 612 nm/Em. 670 with PheraStar FXS (BMG Biotech). The optimal FP buffer was 50 mM Tris, pH 7.4; 3 mM CaCl2; 0.04% Triton X100; 0,05% BSA.
`CNC(=O)C[C@H]1O[C@@H](n2cnc3c(=O)[nH]c(N)nc32)[C@H](O)[C@@H]1O` [Compound 71, 2-[(2R,3S,4R,5R)-5-(2-Amino-6-oxo-1H-purin-9-yl)-3,4-dihydroxy-tetrahydrofuran-2-yl]-N-methyl-acetamide] returned an IC50 of 605 µM.
Still for that read-out and setting: then `CN(C)C(=O)C[C@H]1O[C@@H](n2cnc3c(=O)[nH]c(N)nc32)[C@H](O)[C@@H]1O` [Compound 72, 2-[(2R,3S,4R,5R)-5-(2-Amino-6-oxo-1H-purin-9-yl)-3,4-dihydroxytetrahydrofuran-2-yl]-N,N-dimethyl-acetamide], with 89 µM.
Same read-out and setting: for `CCCCNC(=O)C[C@H]1O[C@@H](n2cnc3c(=O)[nH]c(N)nc32)[C@H](O)[C@@H]1O` [Compound 73, 2-[(2R,3S,4R,5R)-5-(2-Amino-6-oxo-1H-purin-9-yl)-3,4-dihydroxy-tetrahydrofuran-2-yl]-N-butyl-acetamide] the value was 1920 µM.
The compound `CC(=O)N[C@H]1CN(C(=O)CCCCC(=O)OCc2ccccc2)C[C@H](O)[C@@H]1O` [Compound 112, benzyl 6-[(3S,4R,5S)-3-acetamido-4,5-dihydroxy-1-piperidyl]-6-oxo-hexanoate] came in with an IC50 of 344 µM.
On the same count and under the same terms, for `CC(=O)N[C@H]1CN(C(=O)OCc2ccccc2)C[C@H](O)[C@@H]1O` [Compound 121, benzyl (3S,4R,5S)-3-acetamido-4,5-dihydroxy-piperidine-1-carboxylate] the value was 563 µM.
On the same count and under the same terms, then `CC(=O)N[C@H]1CN(C(=O)CCCCCOCc2ccccc2)C[C@H](O)[C@@H]1O` [Compound 128, N-[(3S,4R,5S)-1-(6-benzyloxyhexanoyl)-4,5-dihydroxy-3-piperidyl]acetamide], with 451 µM.
The same measure, in the same setting: for `CC(=O)N[C@H]1CN(C(=O)CCCCCO)C[C@H](O)[C@@H]1O` [Compound 129, N-[(3S,4R,5S)-4,5-dihydroxy-1-(6-hydroxyhexanoyl)-3-piperidyl]acetamide] the value was 585 µM.
Take `O=C(CCCCCOCc1ccccc1)N1C[C@H](O)[C@H](O)[C@@H](n2cc(COc3ccccc3)nn2)C1` [Compound 131, 6-benzyloxy-1-[(3S,4R,5S)-3,4-dihydroxy-5-[4-(phenoxy-methyl)triazol-1-yl]-1-piperidyl]hexan-1-one]: the IC50 came out at 1770 µM.
Same read-out and setting: then `O=C1[C@H](O)[C@H](O)[C@@H](n2cc(COc3ccccc3)nn2)CN1CCCCCCOCc1ccccc1` [Compound 140, (3R,4R,5S)-1-(6-benzyloxyhexyl)-3,4-dihydroxy-5-[4-(phenoxymethyl)triazol-1-yl]piperidin-2-one], with 658 µM; and `CCC[C@@H]1[C@H](O)[C@H](O)[C@@H](NC(C)=O)CN1C(=O)CCCCC(=O)OCc1ccccc1` [Compound 146, benzyl 6-[(2R,3S,4R,5S)-5-acetamido-3,4-dihydroxy-2-propyl-1-piperidyl]-6-oxo-hexanoate], with 488 µM; and `CCC[C@@H]1[C@H](O)[C@H](O)[C@@H](NC(C)=O)CN1C(=O)CCCCC(=O)O` [Compound 148, 6-[(2R,3S,4R,5S)-5-acetamido-3,4-dihydroxy-2-propyl-1-piperidyl]-6-oxo-hexanoic acid], with 370 µM.
Same read-out and setting: for `CC(=O)N[C@H]1CN(C(=O)CCCCC(=O)OCc2ccccc2)[C@H](COC(C)(C)C)[C@H](O)[C@@H]1O` [Compound 160, benzyl 6-[(2R,3S,4R,5S)-5-acetamido-2-(tert-butoxymethyl)-3,4-dihydroxy-1-piperidyl]-6-oxo-hexanoate] the value was 1050 µM.
Turning to `CC(=O)N[C@H]1CN[C@H](COC(=O)CCCCC(=O)OCc2ccccc2)[C@H](O)[C@@H]1O` [Compound 161, 06-[[(2R,3S,4R,5S)-5-acetamido-3,4-dihydroxy-2-piperidyl]methyl] 01-benzyl hexanedioate], the IC50 came out at 161 µM.
Consider `CC(=O)N[C@H]1CN(C(=O)CCCCC(=O)OCc2ccccc2)[C@@H](CO)[C@H](O)[C@@H]1O` [Compound 162, benzyl 6-[(2S,3S,4R,5S)-5-acetamido-3,4-dihydroxy-2-(hydroxymethyl)-1-piperidyl]-6-oxo-hexanoate], for which the IC50 came to 576 µM.
The same measure, in the same setting: then `CC(=O)N[C@H]1CN(CCCCCCOCc2ccccc2)[C@H](CO)[C@H](O)[C@@H]1O` [Compound 180, N-[(3S,4R,5S,6R)-1-(6-benzyloxyhexyl)-4,5-dihydroxy-6-(hydroxymethyl)-3-piperidyl]acetamide], with 628 µM.
Same read-out and setting: for `CC(=O)N[C@H]1C(O)O[C@H](CO)[C@H](O)[C@@H]1O` (stereo partly drawn) [Compound 193, N-[(3R,4R,5R,6R)-2,4,5-trihydroxy-6-(hydroxymethyl)-tetrahydropyran-3-yl]acetamide, reference compound] the value was 545 µM; for `Nc1nc2c(ncn2[C@@H]2O[C@H](CO)[C@@H](O)[C@H]2O)c(=O)[nH]1` [Compound 194, 2-amino-9-[(2R,3R,4S,5R)-3,4-dihydroxy-5-(hydroxymethyl)-tetrahydrofuran-2-yl]-1H-purin-6-one], 513 µM.
Turning to `CN(C)c1nc2c(ncn2[C@@H]2O[C@H](CO)[C@@H](O)[C@H]2O)c(=O)[nH]1` [Compound 198, 9-[(2R,3R,4S,5R)-3,4-dihydroxy-5-(hydroxymethyl)-tetrahydro-furan-2-yl]-2-(dimethylamino)-1H-purin-6-one], the IC50 was 1940 µM.
`CC(C)C(=O)Nc1nc2c(ncn2[C@@H]2O[C@H](CO)[C@@H](O)[C@H]2O)c(=O)[nH]1` [Compound 219, N-Isobuturylguanosine] had an IC50 of 129 µM.

The same assay, now with this note: Table L, targeted nucleosides; competition with 1 nM Cy5-labeled trimeric GalNAc tracer; Wistar rat liver membrane.
In the case of `Cc1cn([C@H]2CN(CCOCCOCCOC[C@H]3O[C@@H](n4cnc5c(=O)[nH]c(N)nc54)[C@H](O)[C@@H]3O)CC(CO)(CO)O2)c(=O)[nH]c1=O` [Compound 254, 1-[(2R)-4-[2-[2-[2-[[(2R,3S,4R,5R)-5-(2-Amino-6-oxo-1H-purin-9-yl)-3,4-dihydroxy-tetrahydrofuran-2-yl]methoxy]ethoxy]ethoxy]ethyl]-6,6-bis-(hydroxymethyl)-morpholin-2-yl]-5-methyl-pyrimidine-2,4-dione], the IC50 is 1240 µM.
`Cc1cn([C@H]2CN(CCOCCOCCOP(=O)(O)OC[C@H]3O[C@@H](n4cnc5c(=O)[nH]c(N)nc54)[C@H](O)[C@@H]3O)CC(CO)(CO)O2)c(=O)[nH]c1=O` [Compound 258, [(2R,3S,4R,5R)-5-(2-Amino-6-oxo-1H-purin-9-yl)-3,4-di-hydroxy-tetrahydrofuran-2-yl]methyl 2-[2-[2-[(6R)-2,2-bis(hydroxymethyl)-6-(5-methyl-2,4-dioxo-pyrimidin-1-yl)morpholin-4-yl]ethoxy]ethoxy]ethyl hydrogen phosphate-sodium salt] registered a concentration for half-maximal inhibition (IC50) of 1850 µM.

The same assay, now with this note: Table M, trimeric compounds; competition with 1 nM Cy5-labeled trimeric GalNAc tracer; Wistar rat liver membrane.
As for `CC(=O)N[C@H]1CN(C(=O)CCCCC(=O)NCCCNC(=O)CCOCC(COCCC(=O)NCCCNC(=O)CCCCC(=O)N2C[C@H](NC(C)=O)[C@@H](O)[C@@H](O)C2)(COCCC(=O)NCCCNC(=O)CCCCC(=O)N2C[C@H](NC(C)=O)[C@@H](O)[C@@H](O)C2)NC(=O)CCCCCCCCCCCOCc2ccccc2)C[C@H](O)[C@@H]1O` [Compound 267, N,N′,N′-((3S,3′S,3″S,4R,4′R,4″R,5S,5′S,5″S)-(17-(12-(benzyloxy)dodecanamido)-6,12,22,28-tetraoxo-17-((3-oxo-3-((3-(6-oxopentanamido)propyl)amino)propoxy)methyl)-15,19-dioxa-7,11,23,27-tetraazatritriacontanedioyl)tris(4,5-dihydroxypiperidine-1,3-diyl))triacetamide], the IC50 worked out at 0.563 µM.
`CC(=O)NC1CN(C(=O)CCCC(=O)NCCCNC(=O)CCOCC(COCCC(=O)NCCCNC(=O)CCCC(=O)N2C[C@H](NC(C)=O)[C@@H](O)[C@@H](O)C2)(COCCC(=O)NCCCNC(=O)CCCC(=O)N2C[C@H](NC(C)=O)[C@@H](O)[C@@H](O)C2)NC(=O)CCCCCCCCCCCOCc2ccccc2)C[C@H](O)[C@@H]1O` (stereo partly drawn) [Compound 268, N,N′,N′-((3S,3′S,3″S,4R,4′R,4″R,5S,5′S,5″S)-(16-(12-(benzyloxy)dodecanamido)-5,11,21,27-tetraoxo-16-((3-oxo-3-((3-(5-oxopentanamido)propyl)amino)propoxy)methyl)-14,18-dioxa-6,10,22,26-tetraazahentriacontanedioyl)tris(4,5-dihydroxy-piperidine-1,3-diyl))triacetamide]: the IC50 amounted to 0.335 µM.
`CC(=O)N[C@H]1CN(C(=O)CCC(=O)NCCCNC(=O)CCOCC(COCCC(=O)NCCCNC(=O)CCC(=O)N2C[C@H](NC(C)=O)[C@@H](O)[C@@H](O)C2)(COCCC(=O)NCCCNC(=O)CCC(=O)N2C[C@H](NC(C)=O)[C@@H](O)[C@@H](O)C2)NC(=O)CCCCCCCCCCCOCc2ccccc2)C[C@H](O)[C@@H]1O` [Compound 269, N,N′,N′-((3S,3′S,3″S,4R,4′R,4″R,5S,5′S,5″S)-(15-(12-(benzyloxy)dodecanamido)-4,10,20,26-tetraoxo-15-((3-oxo-3-((3-(4-oxobutanamido)propyl)amino)pro-poxy)methyl)-13,17-dioxa-5,9,21,25-tetraazanonacosanedioyl)tris(4,5-dihydroxypiperidine-1,3-diyl))triacetamide] showed an IC50 of 0.598 µM.
